Results published in patent publication US9635853B2, “Insecticidal compounds” (Syngenta Participations AG, priority 2013, dated 2017).

What was measured:
Assay type in all cases: in vivo
[1] = tested on: Spodoptera littoralis; assay: Spodoptera littoralis (Egyptian cotton leafworm) leaf disc test; details: foliar, 72 h, 200 ppm sprayed on cotton leaf discs, L1 larvae, mortality, feeding behavior, growth regulation 3 DAT
Source text: Spodoptera littoralis (Egyptian cotton leafworm): Cotton leaf discs were placed on agar in a 24-well microtiter plate and sprayed with test solutions at an application rate of 200 ppm. After drying, the leaf discs were infested with 5 L1 larvae. The samples were checked for mortality, feeding behavior, and growth regulation 3 days after treatment (DAT).

[2] = tested on: Heliothis virescens; assay: Heliothis virescens (Tobacco budworm) egg/artificial diet test; details: 96 h, 200 ppm (concentration in well 18 ppm), eggs on artificial diet, 4 days, egg mortality, larval mortality, growth regulation
Protocol: Heliothis virescens (Tobacco budworm): Eggs (0-24 h old) were placed in 24-well microtiter plate on artificial diet and treated with test solutions at an application rate of 200 ppm (concentration in well 18 ppm) by pipetting. After an incubation period of 4 days, samples were checked for egg mortality, larval mortality, and growth regulation.

[3] = tested on: Plutella xylostella; assay: Plutella xylostella (Diamond back moth) artificial diet test; details: 144 h, 200 ppm (concentration in well 18 ppm), L2 larvae, 6 days, larval mortality and growth regulation
Protocol: (§1) Plutella xylostella (Diamond back moth): 24-well microtiter plate (MTP) with artificial diet was treated with test solutions at an application rate of 200 ppm (concentration in well 18 ppm) by pipetting. After drying, the MTP's were infested with L2 larvae (7-12 per well). After an incubation period of 6 days, samples were checked for larval mortality and growth regulation.

[4] = tested on: Diabrotica balteata; assay: Diabrotica balteata (Corn root worm) artificial diet test; details: 120 h, 200 ppm (concentration in well 18 ppm), L2 larvae, 5 days, larval mortality and growth regulation
Protocol: as §1, with “Diabrotica balteata (Corn root worm): A” for “Plutella xylostella (Diamond back moth):”, “(6-10” for “(7-12”, “5” for “6”

[5] = tested on: Thrips tabaci; assay: Thrips tabaci (Onion thrips) leaf disc test; details: foliar, 168 h, 200 ppm sprayed on sunflower leaf discs, population of mixed ages, 7 days, mortality
Protocol: Thrips tabaci (Onion thrips): Sunflower leaf discs were placed on agar in a 24-well microtiter plate and sprayed with test solutions at an application rate of 200 ppm. […] After an incubation period of 7 days, samples were checked for mortality.

[6] = tested on: Tetranychus urticae; assay: Tetranychus urticae (Two-spotted spider mite) leaf disc test; details: foliar, 192 h, 200 ppm sprayed on bean leaf discs, mite populations of mixed ages, 8 days, egg, larval and adult mortality
Source text: Tetranychus urticae (Two-spotted spider mite): Bean leaf discs on agar in 24-well microtiter plates were sprayed with test solutions at an application rate of 200 ppm. After drying, the leaf discs are infested with mite populations of mixed ages. 8 days later, discs are checked for egg mortality, larval mortality, and adult mortality.

[7] = tested on: Myzus persicae; assay: Myzus persicae (Green peach aphid) leaf disc test; details: foliar, 144 h, 200 ppm sprayed on sunflower leaf discs, aphid population of mixed ages, 6 DAT, mortality
Protocol: Myzus persicae (Green peach aphid): Sunflower leaf discs were placed on agar in a 24-well microtiter plate and sprayed with test solutions at an application rate of 200 ppm. After drying, the leaf discs were infested with an aphid population of mixed ages. After an incubation period of 6 DAT, samples were checked for mortality.

Measured: pest or weed control at 200 ppm

CCN(C(=O)c1ccncc1)c1cccc(C(=O)Nc2c(Cl)cc(C(F)(C(F)(F)F)C(F)(F)F)cc2Br)c1F [Compound 1, N′-[3-[[2-bromo-6-chloro-4-[1,1,1,2,3,3,3-heptafluoro-prop-2-yl]phenyl]carbamoyl]-2-fluoro-phenyl]-N-ethyl-pyridine-4-carboxamide]
≥ 80%: all assays above

CCN(C(=O)c1cc[n+]([O-])cc1)c1cccc(C(=O)Nc2c(Cl)cc(C(F)(C(F)(F)F)C(F)(F)F)cc2Br)c1F [Compound 2, N′-[3-[[2-bromo-6-chloro-4-[1,1,1,2,3,3,3-heptafluoro-prop-2-yl]phenyl]carbamoyl]-2-fluoro-phenyl]-N-ethyl-1-oxido-pyridin-1-ium-4-carboxamide]
≥ 80%: all assays above

CN(C(=O)c1ccncc1)c1cccc(C(=O)Nc2c(Cl)cc(C(F)(C(F)(F)F)C(F)(F)F)cc2Br)c1F [Compound 3]
not listed: [2]
≥ 80%: all other assays above

CCc1cc(C(F)(C(F)(F)F)C(F)(F)F)cc(CC)c1NC(=O)c1cccc(N(CC)C(=O)c2ccncc2)c1F [Compound 4]
not listed: [2]
≥ 80%: all other assays above

CCc1cc(C(F)(C(F)(F)F)C(F)(F)F)cc(CC)c1NC(=O)c1cccc(N(CC)C(=O)c2cc[n+]([O-])cc2)c1F [Compound 5]
not listed: [1] | [2]
≥ 80%: all other assays above

CCN(C(=O)c1ccncc1)c1cccc(C(=O)Nc2c(Br)cc(C(F)(C(F)(F)F)C(F)(F)F)cc2Br)c1F [Compound 6]
≥ 80%: all assays above

CCN(C(=O)c1ccncc1)c1cccc(C(=O)Nc2c(Br)cc(C(F)(C(F)(F)F)C(F)(F)F)cc2OC(F)F)c1F [Compound 7]
≥ 80%: all assays above

CN(C(=O)c1ccncc1)c1cccc(C(=O)Nc2c(Br)cc(C(F)(C(F)(F)F)C(F)(F)F)cc2Br)c1F [Compound 8]
≥ 80%: all assays above

CN(C(=O)c1cc[n+]([O-])cc1)c1cccc(C(=O)Nc2c(Br)cc(C(F)(C(F)(F)F)C(F)(F)F)cc2Br)c1F [Compound 9]
≥ 80%: all assays above

CN(C(=O)c1ccncc1)c1cccc(C(=O)Nc2c(Cl)cc(C(F)(C(F)(F)F)C(F)(F)F)cc2Cl)c1F [Compound 10]
≥ 80%: all assays above

CCN(C(=O)c1ccncc1)c1cccc(C(=O)Nc2c(Cl)cc(C(F)(C(F)(F)F)C(F)(F)F)cc2Cl)c1F [Compound 11]
≥ 80%: all assays above

Cc1cc(C(F)(C(F)(F)F)C(F)(F)F)cc(Cl)c1NC(=O)c1cccc(N(C)C(=O)c2ccncc2)c1F [Compound 12]
≥ 80%: all assays above

CCc1cc(C(F)(C(F)(F)F)C(F)(F)F)cc(Cl)c1NC(=O)c1cccc(N(CC)C(=O)c2ccncc2)c1F [Compound 13]
≥ 80%: all assays above

CCN(C(=O)c1ccncc1)c1cccc(C(=O)Nc2c(C)cc(C(F)(C(F)(F)F)C(F)(F)F)cc2Cl)c1F [Compound 14]
≥ 80%: all assays above

CCN(C(=O)c1ccncc1)c1cccc(C(=O)Nc2c(Br)cc(C(F)(C(F)(F)F)C(F)(F)F)cc2C2CC2)c1F [Compound 15]
≥ 80%: all assays above

CCN(C(=O)c1cc[n+]([O-])cc1)c1cccc(C(=O)Nc2c(Br)cc(C(F)(C(F)(F)F)C(F)(F)F)cc2C2CC2)c1F [Compound 16]
≥ 80%: all assays above

CCN(C(=O)c1cc[n+]([O-])cc1)c1cccc(C(=O)Nc2c(Br)cc(C(F)(C(F)(F)F)C(F)(F)F)cc2OC(F)F)c1F [Compound 17]
≥ 80%: all assays above

CCN(C(=O)c1ccncc1)c1cccc(C(=O)Nc2c(Cl)cc(C(F)(C(F)(F)F)C(F)(F)F)cc2OC(F)F)c1F [Compound 18]
not listed: [2]
≥ 80%: all other assays above

CCN(C(=O)c1ccncc1)c1cccc(C(=O)Nc2c(C)cc(C(F)(C(F)(F)F)C(F)(F)F)cc2OC(F)F)c1F [Compound 19]
not listed: [2]
≥ 80%: all other assays above
